Reference: US6762052B1, “DNA sequence encoding flavin-containing monooxygenase” (priority 1993, dated 2004)
Values after ≈ are worked out from the molar mass of the structure shown.

Legend:
NM522 E. coli = test: Bactericidal action / cytotoxicity in liquid culture; details: Escherichia coli, read-out: bactericidal action EC50
[1] = tested on: E. coli strains that contained FMO3 cDNA; test: Agar plate growth in the presence of difloxacin, strains with FMO3 cDNA; assay type: cell-based; details: same conditions (0.25 microgram/mL)
From the text: (§1) To validate the observations made in liquid culture, agar plate experiments were done in the presence of difloxacin with different strains streaked out containing different FMO cDNAs.

[2] = tested on: E. coli containing FMO1 cDNA plasmid; test: Agar plate growth in the presence of difloxacin, strain with FMO1 plasmid; assay type: cell-based; details: 0.25 microgram/mL
From the text: as §1

Human Liver Microsomes = test: in vitro
Method: (§2) In all cases examined, product formation was directly determined by HPLC analysis of organic extracts.
(§3) Human liver samples were obtained from the Department of Surgery (UCSF) and with a protocol from the Medical College of Wisconsin (S. Wrighton).
(§4) A typical incubation mixture (final volume 0.25 ml) contained hepatic microsomes (0.4 mg of protein) or bacterial lysate (2.3 mg of protein), NADP^+ (0.5 mM), glucose-6-phosphate (2.0 mM), glucose-6-phosphate dehydrogenase (1 IU), DETAPAC (0.8 mM) and potassium phosphate buffer (50 mM, pH 8.4). Reactions were initiated by the addition of substrate and terminated at designated times by the addition of three volumes of cold dichloromethane, mixed thoroughly and centrifuged to separate the aqueous and organic fractions. N- and S-oxide metabolic products in the resulting organic extracts were separated and quantified by HPLC. […] Thiobenzamide and thiobenzamide S-oxide were quantified with this same, HPLC system employing a mobile phase of methanol/acetonitrile/60% perchloric acid (20:80:0.016, v/v) which gave retention volumes of 2.7 and 7.0 ml, respectively. […] The major metabolites formed in the incubations were also subjected to mass spectral analysis after extraction of isolated HPLC fractions.
(§5) RPLC of the S-oxide diastereomers with a Chiracel OT chiral analytical column (25 cm×0.15 cm inner diameter, Daicel Chemical Co., New York, N.Y.) was accomplished with a Beckman system, Kratos UV detector (240 nm) and a Hewlett Packard Integrator. […] Quantification was accomplished by comparing integrated HPLC peak areas after taking into account the difference in the extinction coefficients at 240 nm. Likewise, the cis and trans S-oxide diasteromers of (+)- and (−)-2-methyl-1,-benzodithiole were separated with a Chiracel OT chiral analytical column.

in vitro = details: human, pH 8.4
Method: as §2, §3, §4, §5

[3] = target: T1, adult human liver flavin-containing monooxygenase (form 3) (Homo sapiens, UniProt P31513, E158K); test: N- and S-oxygenation by cDNA-expressed HLFMO 3 (solubilized protein from E. coli transformed with pTrcHLFMO 3), HPLC
T1 sequence (P31513 1-532 E158K): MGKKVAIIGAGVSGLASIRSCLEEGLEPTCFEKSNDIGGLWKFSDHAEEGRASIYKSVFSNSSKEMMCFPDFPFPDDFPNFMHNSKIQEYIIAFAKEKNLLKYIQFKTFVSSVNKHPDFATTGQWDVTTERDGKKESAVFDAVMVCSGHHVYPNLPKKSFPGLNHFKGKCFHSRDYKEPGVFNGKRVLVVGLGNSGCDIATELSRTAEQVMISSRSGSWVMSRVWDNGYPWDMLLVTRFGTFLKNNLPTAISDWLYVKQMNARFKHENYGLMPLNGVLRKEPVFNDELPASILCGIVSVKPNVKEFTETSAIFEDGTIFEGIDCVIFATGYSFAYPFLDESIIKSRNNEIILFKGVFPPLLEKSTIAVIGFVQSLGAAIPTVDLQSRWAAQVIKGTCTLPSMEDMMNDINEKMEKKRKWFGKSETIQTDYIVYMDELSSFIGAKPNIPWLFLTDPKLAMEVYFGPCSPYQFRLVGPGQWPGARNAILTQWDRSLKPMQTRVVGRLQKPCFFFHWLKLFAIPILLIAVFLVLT
Method: as §2
Competent NM522 Escherichia coli cells were transformed with the pTrc HLFMO 3 plasmid. […] After inoculation with a fresh overnight culture of NM522 containing pTrcHLFMO 3, the culture was grown at 37° C. until Abs600 was approximately 0.5 absorbance units. Finally, IPTG (0.8 mM) was added to the culture to induce expression of protein and the culture was left to grow overnight at 37° C.
The bacterial pellet was resuspended in 5 volumes of 50 mM potassium phosphate buffer (pH 8.4) containing 1% Triton X-100, 0.1% L-, α-phosphatidylcholine (L-α-lecithin) from egg yolk, 500 μM PMSF, and 1 mM EDTA. The mixture was sonicated and then centrifuged to remove cellular debris. As a control, bacterial lysate extracts from IPTG-induced pTrc99A-transformed NM522 cells (i.e., pTrc99A without the HLFMO 3 cDNA insert) were prepared under the same conditions.
as §3, §4, §5

lys158-HFMO3-MBP = target: T2, lys158-HFMO3-MBP (Homo sapiens, UniProt P31513, E158K); test: Substrate oxygenation by lys158-HFMO3-MBP fusion protein, HPLC; details: Lys 158 variant
T2 sequence (P31513 2-532 E158K): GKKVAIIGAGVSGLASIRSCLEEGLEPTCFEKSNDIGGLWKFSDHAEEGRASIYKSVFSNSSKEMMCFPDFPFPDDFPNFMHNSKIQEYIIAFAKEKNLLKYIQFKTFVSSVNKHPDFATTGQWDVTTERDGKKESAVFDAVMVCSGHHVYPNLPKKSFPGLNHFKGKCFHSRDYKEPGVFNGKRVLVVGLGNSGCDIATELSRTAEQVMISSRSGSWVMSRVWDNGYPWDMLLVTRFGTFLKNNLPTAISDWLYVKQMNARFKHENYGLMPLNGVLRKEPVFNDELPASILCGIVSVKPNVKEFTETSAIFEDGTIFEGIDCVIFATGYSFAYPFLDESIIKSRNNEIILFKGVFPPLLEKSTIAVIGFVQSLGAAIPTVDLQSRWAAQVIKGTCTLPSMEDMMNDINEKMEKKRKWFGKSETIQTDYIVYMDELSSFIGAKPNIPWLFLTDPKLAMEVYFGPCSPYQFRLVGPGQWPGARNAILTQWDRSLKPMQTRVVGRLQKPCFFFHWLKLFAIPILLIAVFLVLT
Method: For HFMO3-MBP assay, all HFMO3-MBP incubations were done as follows: Into a test tube was added DETAPAC (1.2 mM, final concentration for a 250 μl reaction) followed by the addition of 60 μl NADPH generating system (0.4 mM NADP, 0.4 mM glucose-6-phosphate, and 20 μl of a 50 units mI^−1 glucose-6-phosphate dehydrogenase). The tube was chilled on ice and buffer and enzyme were added as described below for individual experiments to give a volume of 240 μl. The incubation was initiated by the addition of 5-DTP (10 μl of 5 mM) and placed in a shaking water bath at 37° C. for 10 min (unless specified otherwise). The incubation was stopped by the addition of 1.0 ml of ice-cold CH2Cl2. Following the addition of sodium carbonate (approx. 20 mg), the culture tube was vortexed, centrifuged (2000×g, 10 min), and the organic layer was removed and transferred to a 1.5 ml microfuge tube. The organic solvent was evaporated under a stream of Ar(g) to dryness and the residue was taken up in MeOH (300 μl) for determination HPLC analysis.
Data was analyzed with a Hitachi D-2500 integrator.
MTS-oxygenation assays were carried out under the same buffer, temperature, time and volume conditions, as for the N-oxygenation assays. The reactions were initiated upon addition of 10 μl of a 5 mM solution of MTS. The reaction was quenched with the addition of 700 μl of 80% CH3CN:20% hexane then 20 mg NaCl(s) and vortexed vigorously for 10 sec. The quenched reactions were then centrifuged briefly to separate the phases. The organic layer, containing product and substrate, was removed and used directly for HPLC analysis.
All other instruments used were the same as above for the N-oxygenation reactions. Conditions for elution were 50% CH3CN/H2O (v:v) with a flow rate gradient as follows: 1.5 ml min^−1 from 0 to 4 min., 1.5-2.5 ml min^−1 from 4 to 5 min, 2.5 ml min^−1 from 5 to 15 min.
Trimethylamine is commonly ingested in foodstuffs or it is available in the diet of humans from choline and other sources. Trimethylamine (TMA) is exclusively eliminated in humans by metabolism to trimethylamine N-oxide (TMANO). […] Thus, urinary TMANO formation provides a simple, reliable and direct assay of FMO3 activity in adult humans. Analysis of TMA to TMANO ratios provides a direct means of phenotyping adult humans for FMO3 activity. Phenotyping FMO3 activity in humans would provide a simple means of evaluating the relationship between the presence of FMO3 and various disease conditions. […]

[4] = normal humans, dietary sources or otherwise; cited from earlier work
human FMO3 = human FMO3 (Homo sapiens, UniProt P31513); details: in vitro; cited from earlier work
Sequence of human FMO3 (P31513 whole entry): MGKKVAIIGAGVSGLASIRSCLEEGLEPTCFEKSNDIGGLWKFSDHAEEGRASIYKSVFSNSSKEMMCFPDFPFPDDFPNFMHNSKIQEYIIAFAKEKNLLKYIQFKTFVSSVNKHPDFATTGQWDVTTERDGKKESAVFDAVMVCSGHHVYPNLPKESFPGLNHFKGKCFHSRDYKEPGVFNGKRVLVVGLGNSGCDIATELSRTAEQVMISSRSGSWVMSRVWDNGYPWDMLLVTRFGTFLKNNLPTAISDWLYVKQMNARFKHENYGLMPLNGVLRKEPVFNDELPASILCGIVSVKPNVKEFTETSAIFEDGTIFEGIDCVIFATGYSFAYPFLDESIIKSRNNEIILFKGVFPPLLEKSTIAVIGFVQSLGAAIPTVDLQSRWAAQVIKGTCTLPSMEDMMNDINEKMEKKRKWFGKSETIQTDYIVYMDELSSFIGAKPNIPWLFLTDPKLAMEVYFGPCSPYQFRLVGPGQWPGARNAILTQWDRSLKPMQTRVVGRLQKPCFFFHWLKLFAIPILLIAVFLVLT

For CN1CCN(c2cc3c(cc2F)c(=O)c(C(=O)O)cn3-c2ccc(F)cc2)CC1 [difloxacin], the EC50 (NM522 E. coli) was about 5 µg/mL (≈ 12.5 µM), the “sensitivity of strains containing FMO3 cDNA to the antibiotic” value [1] was “much more sensitive” and the “effect of FMO1 plasmid on growth in the presence of the antibiotic” value [2] was “conferred resistance”.

In the case of NC(=S)c1ccccc1 [Thiobenzamide, thiobenzamide], the “Vmax, Human Liver Microsomes” value (Human Liver Microsomes) is reported as 1.3 nmol/min/mg of protein, the Km (in vitro) is reported as 14.9 µM and the “substrate activity for human liver microsomes and expressed HLFMO 3, in words” value [3] is reported as “excellent substrates”. The “pH of maximum S-oxygenase activity” value ([3]; in the presence of microsomes and expressed HLFMO 3) was about 8.5.

In the case of CN(C)C [TMA, trimethylamine], the “Vmax of N-oxygenation to TMANO” value (lys158-HFMO3-MBP) is listed as 3.8 nmol of TMANO formed/min/mg of protein and the “dose converted to TMANO that is excreted in the urine” value [4] is listed as “over 95%”.

For CN1CCC[C@H]1c1cccnc1 [(S)-nicotine], the “N-1'-oxide product stereoselectivity” value (human FMO3) is listed as “exclusively converted to trans (S)-nicotine N-1′-oxide”.
